This note sets out measurements from US20210378926A1, “A TOPICAL COMPOSITION” (priority 2018, published 2021).

The subject of this assay is S. hominis (ATCC 27844). In words: Malodor Assay (H2S production, lead acetate paper blackening). It counts as cell-based. As to conditions: S. hominis culture in TSB with 0.1% L-cysteine-HCl, 96 well plate, 37° C. for about 16 hours; blackening of lead acetate paper scored 0 to 10 versus control (completely black); ingredient amounts in ppm as per Table 1. On the procedure: The efficacy of different ingredients and combinations were tried using the Malodor Assay protocol with S. hominis (ATCC 27844) as described below:
The malodour assay was done in a 96 well plate (Nunc™, ThermoFisher). First, a lead acetate paper was prepared as follows. A Whatman™ (No. 1) filter paper (150 mm, Cat No. 1001-150) was taken and cut to match the top cross-sectional dimension of the 96 well plate. 1% Lead acetate (Hi Media, RM 757) solution was prepared in distilled water and the Whatman™ filter paper was soaked in the prepared lead acetate solution. The excess solution from the filter paper was drained and allowed to dry in a Laminar Air Flow for 1 hour. After drying, the filter paper was wrapped in an Aluminium foil and autoclaved at 121° C. for about 20 minutes. This lead acetate paper was used for the assay to capture the malodour generation at the later stage.
A TSB broth solution was prepared by adding 0.1% L-cysteine-HCl (Sigma, C1276) into TSB (Bacto, 211825, 30 g/L) and autoclaved. After that, the 96 well plate was taken followed by addition of 180 μL/well of the above prepared TSB solution into the wells. Then 20 μL/well of S. hominis culture ([…]) was added to the wells. Different ingredient and/or mix of ingredients as per following Table 1 were added into the wells along with a control (only distilled water and bacteria) as per the required concentration (as mentioned in Table 1). Finally, the lead acetate paper that was prepared previously was placed on the wells of the 96-well plate and the lid was closed. This plate was then incubated in an incubator (LABTOP, bacteriological incubator) at 37° C. for about 16 hours. The lid of the plate was opened after the incubation and observed the lead acetate paper for any visual change in colour. […] The results and the effect of actives were compared with the control (completely black).
The results of these experiments are expressed in terms of “% reduction” in H2S production which is determined from the blackening of the spot as explained above. Each spot with different test samples has been compared with the control (completely black) sample. It was then rated on a scale of 0 to 10 (10 being completely black as like control and 0 is no blackening). From the score the percentage reduction was evaluated e.g. if the blackening of any sample is as dark as control then the score given was “8-10” and accordingly % reduction is <20%.

Each structure is given as a SMILES string.

As for `O=S(=O)([O-])[O-].[Cu+2]` [J, CuSO4], the “% reduction in H2S production” value is on record as below 20%.
As for `O=S(=O)([O-])[O-].[Fe+2]` [G, FeSO4], the “% reduction in H2S production” value is listed as below 20%.
The figure for `O=S(=O)([O-])[O-].[Cu+2]` [K, CuSO4] is 20-40%.
The figure for `C=CCc1ccc(O)c(-c2cc(CC=C)ccc2O)c1` [D, magnolol] is below 20%; for `C=CCc1ccc(O)c(-c2ccc(O)c(CC=C)c2)c1` [C, honokiol] it is 20-40%.
